Data as given in patent US10828378B2, “Nucleic acid construct for expression of oxidative stress indicator and use thereof” (Riken, priority 2011, dated 2020).
Counter-ions that a name gives are not always drawn.

Tests used:
[1] = test system: OKD48-Luc reporter (Keap1-Nrf2 pathway); assay: Dual luciferase assay using the OKD48-Luc reporter in HeLa cells; type: cell-based, human; settings: for response of HeLa cells containing OKD48-Luc (luciferase assay): 8 h or 16 h, 10 μM ASN, 100 μM DEM, 2.5 μg/ml tunicamycin, 1 μM thapsigargin, 1 mM DTT, 100 μM etoposide, 100 μg/ml TTFA, FIG. 5A
Procedure: HeLa cells or HEK293T cells were cultured in a DMEM medium supplemented with 100 U/ml penicillin, 100 μg/ml streptomycin, and 10% fetal bovine serum at 37° C. in an atmosphere containing 5% CO2. The plasmid DNAs were inserted into the cells of each line using the calcium phosphate-DNA precipitation method. In order to test cellular response to agents, the cells were treated with 10 μM sodium arsenite (ASN), 100 μM diethyl maleate (DEM), 200 μM H2O2, 2.5 μg/ml tunicamycin, 1 μM thapsigargin, 1 mM DTT, 100 μM etoposide, or 100 μg/ml thenoyltrifluoroacetone (TTFA) over varying times.
In dual luciferase assay using the OKD48-Luc reporter, phRL-TK (Promega Corp.) was used as an internal control. The HeLa cells were seeded on a 24-well plate and then transfected with the plasmid DNAs. At 24 hours after the transfection, the cells were lysed for luciferase assay. Each reporter activity was measured using a luciferase assay system (Promega Corp.) and a luminometer (Berthold Japan Co., Ltd.). The results were shown as mean±SEM of three experiments. Each value was indicated in terms of fold induction. This fold induction was normalized for that of an untreated sample (NT) (FIG. 5A), an untreated sample (NT) free from Nrf2 overexpression (FIG. 5D), or an untreated sample (NT) free from Keap1 overexpression (FIG. 5E). In this calculation, the fold induction of each NT was defined as 1.0.

OKD48-Venus reporter = assay: Fluorescence imaging of OKD48-Venus reporter in HEK293T cells; type: cell-based, human; settings: 8 h treatment, FIG. 7A
Procedure: HEK293T cells were transfected with the OKD48-Venus construct and then treated for 8 hours in the presence or absence of sodium arsenite (ASN) or diethyl maleate. Their fluorescence images were obtained together with phase-contrast images. […] HEK293T cells were transfected with the OKD48-Venus construct and then treated for 8 hours in the presence or absence of sodium arsenite (ASN), diethyl maleate (DEM), H2O2, tunicamycin (Tun), thapsigargin (Tg), dithiothreitol (DTT), etoposide (Etp), or thenoyltrifluoroacetone (TTFA). Fluorescence from their cell lysates was measured and normalized for luciferase in the cotransfected cells. In the diagram, n.d. represents not detected. […] Their cell lysates were analyzed by Western blotting using an anti-GFP antibody or an anti-GAPDH antibody. […]
In order to take images of the cells, the HEK293T cells were seeded over a 6-well plate and then transfected with the plasmid DNAs. At 24 hours after the transfection, fluorescence images were obtained using FSX100 (Olympus Corp.). In order to measure the fluorescence of cell lysates, the cells were lysed in a digitonin buffer (50 mM Tris-HCl (pH 7.5), 1 mM EDTA, 10 mM EGTA, and 10 μM digitonin) at 37° C. for 30 minutes. […] The fluorescence intensity of each sample was normalized against the activity of luciferase derived from the cotransfected cells. […]

endogenous Nrf2 = assay: Western blot of endogenous Nrf2 in HeLa cells; type: cell-based, human; settings: 8 h or 16 h treatment, FIG. 5C
Procedure: (§1) HeLa cells were transfected with the OKD48 construct. Luciferase assay was conducted after treatment for 8 hours or 16 hours in the presence or absence of different stressors (sodium arsenite (ASN), diethyl maleate (DEM), H2O2, tunicamycin (Tun), thapsigargin (Tg), dithiothreitol (DTT), etoposide (Etp), and thenoyltrifluoroacetone (TTFA)). […] HEK293T cells were transfected with the OKD48 construct and treated for 8 hours in the presence or absence of different stressors. The cell lysates were analyzed by Western blotting using an anti-Luc antibody or an anti-GAPDH antibody. […] HeLa cells were treated for 8 hours or 16 hours in the presence or absence of different stressors. Then, the cell lysates were analyzed by Western blotting using an anti-Luc antibody or an anti-GAPDH antibody. […]
(§2) The cells were lysed in an SDS sample buffer (50 mM Tris-HCl (pH 6.8), 2% SDS, 50 mM DTT, 10% glycerol, and 1 μg/ml bromophenol blue). […] After the electrophoresis, the proteins were electrically transferred to a polyvinylidene fluoride porous membrane and immunologically detected by a standard approach using a monoclonal antibody against luciferase (Promega Corp.), a monoclonal antibody against GFP (Nacalai Tesque, Inc.), a monoclonal antibody against GAPDH (Cell Signaling Technology, Inc.), or a polyclonal antibody against Nrf2 (Santa Cruz Biotechnology, Inc.).

OKD48-transgenic mouse = assay: In vivo luminescence imaging of OKD48-transgenic mouse; settings: 12.5 mg/kg intraperitoneal, 6 hours later
Procedure: The 4.5-kb Spel-SfiI fragment of p(3×ARE)TKbasal-hNrf2(1-433)-GL4-Flag was microinjected as a transgene into the fertilized eggs of a C57BL/6 mouse. […] The obtained mouse was used for in vivo imaging assay. After intraperitoneal injection of D-luciferin (4.5 mg), the mouse was analyzed according to a standard protocol using an in vivo imaging system IVIS (Xenogen Corp.). The experimental protocol involving the animal was approved by the animal research committee of RIKEN (Japan).
In order to monitor oxidative stress in vivo, an OKD48-transgenic mouse having a 3×ARE-driven Nrf2(1-433)-Luc expression gene was prepared. In order to confirm that cells placed under oxidative stress were able to be effectively used in vivo, ASN inducing oxidative stress in various tissues or organs was intraperitoneally injected (12.5 mg/kg) to a transgenic mouse.

OKD48-Luc = assay: Western blot of OKD48-Luc protein with anti-Luc antibody in HEK293T cells; type: cell-based, human; settings: 8 h treatment, FIG. 5B
Procedure: as §1, §2

Compound: O[C@H](CS)[C@H](O)CS (racemic) [dithiothreitol]
- response of HeLa cells containing OKD48-Luc (luciferase assay) [1]: rarely activated

Compound: O=[As]O [ASN, sodium arsenite]
- fluorescence of OKD48-Venus under microscopic observation (OKD48-Venus reporter): emitted fluorescence
- induction of endogenous Nrf2 (Western blot) (endogenous Nrf2): significantly induced
- luminescence in the liver (OKD48-transgenic mouse; abdominal section, FIG. 8): strong luminescence
- luminescence in other tissues or organs (e.g., stomach and kidney) (OKD48-transgenic mouse; data not shown): detected to some extent
- OKD48-Luc at the protein level (Western blot, anti-Luc antibody) (OKD48-Luc): rise
- activity of OKD48-Luc under Nrf2 overexpression, effect of stressor treatment ([1]; HeLa cells with Nrf2 overexpression, 8 h treatment, FIG. 5D): slightly increased
- response of HeLa cells containing OKD48-Luc (luciferase assay) [1]: specifically responded

Compound: CCOC(=O)/C=C\C(=O)OCC [DEM, diethyl maleate]
- fluorescence of OKD48-Venus under microscopic observation (OKD48-Venus reporter): emitted fluorescence
- induction of endogenous Nrf2 (Western blot) (endogenous Nrf2): significantly induced
- OKD48-Luc at the protein level (Western blot, anti-Luc antibody) (OKD48-Luc): rise
- response of HeLa cells containing OKD48-Luc (luciferase assay) [1]: specifically responded

Compound: COc1cc([C@@H]2c3cc4c(cc3[C@@H](O[C@@H]3O[C@@H]5CO[C@@H](C)O[C@H]5[C@H](O)[C@H]3O)[C@H]3COC(=O)[C@H]23)OCO4)cc(OC)c1O [etoposide]
- response of HeLa cells containing OKD48-Luc (luciferase assay) [1]: rarely activated

Compound: C/C=C(/C)C(=O)O[C@H]1C(C)=C2[C@H]([C@@H]1OC(=O)CCCCCCC)[C@@](C)(OC(C)=O)C[C@H](OC(=O)CCC)[C@@]1(O)[C@H]2OC(=O)[C@@]1(C)O [thapsigargin]
- response of HeLa cells containing OKD48-Luc (luciferase assay) [1]: rarely activated

Compound: O=C(CC(=O)C(F)(F)F)c1cccs1 [thenoyltrifluoroacetone]
- response of HeLa cells containing OKD48-Luc (luciferase assay) [1]: rarely activated

Compound: tunicamycin
- response of HeLa cells containing OKD48-Luc (luciferase assay) [1]: rarely activated
